In ChEMBL document CHEMBL4613250, “Discovery of 4-((2S,4S)-4-Ethoxy-1-((5-methoxy-7-methyl-1H-indol-4-yl)methyl)piperidin-2-yl)benzoic Acid (LNP023), a Factor B Inhibitor Specifically Designed To Be Applicable to Treating a Diverse Array of Complement Mediated Diseases” (J Med Chem, 2020):

Key:
[1] = Tmax in Wistar Han rat at 30 mg/kg, po after 0.5 to 24 hrs by HPLC-MS/MS analysis; format: ADME, organism-based; details: in vivo
[2] = AUC/dose in Wistar Han rat at 30 mg/kg, po after 0.5 to 24 hrs by HPLC-MS/MS analysis; format: ADME, organism-based; details: in vivo
[3] = species: Canis familiaris; experiment: animal or person; details: Canis lupus familiaris, beagle, po, 6 h, read-out: INH
[4] = Volume of distribution at steady state in beagle dog at 0.1 mg/kg, iv after 15 mins to 24 hrs by HPLC-MS/MS analysis; format: ADME, organism-based, Canis lupus familiaris; details: in vivo, read-out: Vdss
[5] = Clearance in Wistar Han rat at 1 mg/kg, iv after 0.5 to 24 hrs by HPLC-MS/MS analysis; format: ADME, organism-based; details: in vivo
[6] = Clearance in beagle dog at 0.1 mg/kg, iv after 15 mins to 24 hrs by HPLC-MS/MS analysis; format: ADME, organism-based, Canis lupus familiaris; details: in vivo
[7] = Half life in beagle dog at 0.1 mg/kg, iv after 15 mins to 24 hrs by HPLC-MS/MS analysis; format: ADME, organism-based, Canis lupus familiaris; details: in vivo
[8] = Mean residence time in beagle dog at 0.1 mg/kg, iv after 15 mins to 24 hrs by HPLC-MS/MS analysis; format: ADME, organism-based, Canis lupus familiaris; details: in vivo
[9] = Volume of distribution at steady state in Wistar Han rat at 1 mg/kg, iv after 0.5 to 24 hrs by HPLC-MS/MS analysis; format: ADME, organism-based; details: in vivo, read-out: Vdss
[10] = Tmax in beagle dog at 10 mg/kg, po after 15 mins to 24 hrs by HPLC-MS/MS analysis; format: ADME, organism-based, Canis lupus familiaris; details: in vivo
[11] = Oral bioavailability in Wistar Han rat at 30 mg/kg after 0.5 to 24 hrs by HPLC-MS/MS analysis; format: ADME, organism-based; details: in vivo
[12] = species: Canis familiaris; experiment: animal or person; details: Canis lupus familiaris, beagle, po, 12 h, read-out: INH
[13] = Cmax/dose in beagle dog at 10 mg/kg, po after 15 mins to 24 hrs by HPLC-MS/MS analysis; format: ADME, organism-based, Canis lupus familiaris; details: in vivo
[14] = AUC/dose in beagle dog at 10 mg/kg, po after 15 mins to 24 hrs by HPLC-MS/MS analysis; format: ADME, organism-based, Canis lupus familiaris; details: in vivo
[15] = Cmax/dose in Wistar Han rat at 30 mg/kg, po after 0.5 to 24 hrs by HPLC-MS/MS analysis; format: ADME, organism-based; details: in vivo
[16] = Mean residence time in Wistar Han rat at 1 mg/kg, iv after 0.5 to 24 hrs by HPLC-MS/MS analysis; format: ADME, organism-based; details: in vivo
[17] = Oral bioavailability in beagle dog at 10 mg/kg after 15 mins to 24 hrs by HPLC-MS/MS analysis; format: ADME, organism-based, Canis lupus familiaris; details: in vivo
[18] = AUC/dose in beagle dog at 0.1 mg/kg, iv after 15 mins to 24 hrs by HPLC-MS/MS analysis; format: ADME, organism-based, Canis lupus familiaris; details: in vivo
[19] = Half life in Wistar Han rat at 1 mg/kg, iv after 0.5 to 24 hrs by HPLC-MS/MS analysis; format: ADME, organism-based; details: in vivo
[20] = AUC/dose in Wistar Han rat at 1 mg/kg, iv after 0.5 to 24 hrs by HPLC-MS/MS analysis; format: ADME, organism-based; details: in vivo

CCO[C@H]1CCN(Cc2c(OC)cc(C)c3[nH]ccc23)[C@H](c2ccc(C(=O)O)cc2)C1.Cl
Tmax [1]: 2 h | AUC/dose [2]: 2100 nM·h | inhibition in vivo at 3 mg/kg [3]: 100% | Vd [4]: 0.6 L/kg | clearance [5]: 8 mL/min/kg | clearance [6]: 2 mL/min/kg | half-life [7]: 5.6 h | MRT [8]: 5.5 h | Vd [9]: 2.3 L/kg | Tmax [10]: 0.8 h | bioavailability [11]: 40% | inhibition in vivo at 3 mg/kg [12]: 55% | Cmax/dose [13]: 2200 nM | AUC/dose [14]: 12700 nM·h | Cmax/dose [15]: 410 nM | MRT [16]: 3.4 h | bioavailability [17]: 60% | AUC/dose [18]: 21000 nM·h | half-life [19]: 7 h | AUC/dose [20]: 5200 nM·h
